Where two headings read alike, the source gives them in different places. Blank lines part the entries; values can stand above or below the molecule they belong to.
Assays:
[1] = test system: KB/V: the vincristine-resistant substrain of KB; assay: cells; format: cell-based, human; conditions: read-out: IC50(M) KB/V
Procedure: (§1) Experiment 1. Cytotoxicity Screening Assay at Cell Level of Compounds of this Invention
(§2) Tumor cells at log phase were incubated on 96-well plates at a density of 1˜1.2×10^4 cells/ml, 100 μl/well. 24 h later, treatment cells were exposed to the tested agents at different concentrations. Each tested agents had 4˜5 doses, and each dose had at least 3 parallel wells. Control cells were exposed to solvents in the same volume with treat agents. Cells were cultured at 37° C. in a cell incubator with 5% CO2 and 95% air atmosphere. After 4 days of culture, the incubation medium was removed, then 200 μl 0.2% MTT (prepared by RPMI 1640) was added to each well and the plates were incubated at 37° C. for 4 hours. The supernatant was discarded and dissolved the resulting formazen product with 200 μl DMSO in each well. The absorbance at a reference wavelength of 450 nm and a test wavelength of 570 nm was read on a microplate reader after tenderly shaking. Calculated drug inhibitory rate using the following equation and IC50, taking solvent exposure tumor cells as control cells.

[2] = test system: A549/Taxol: the taxol-resistant substrain of A549; assay: cells; format: cell-based, human
Procedure: as §1, §2

[3] = test system: A549: the human lung adenocarcinoma cell strain; assay: cells; format: cell-based
Procedure: as §1, §2

[4] = test system: KB: the human oral epithelium cancer cell strain; assay: cells; format: cell-based
Procedure: as §1, §2

[5] = test system: human mammary adenocarcinoma cell strain MCF-7; assay: MTT cytotoxicity assay, MCF-7 cells; format: cell-based; conditions: Homo sapiens, MCF7, Table 2, read-out: IC50 (mol/L) MCF-7
Procedure: as §1, §2

BGC-803 = assay: MTT cytotoxicity assay, BGC-803 cells; format: cell-based; conditions: BGC803, Table 2, read-out: IC50 (mol/L) BGC-803
Procedure: as §1, §2

Lewis lung cancer = assay: Inhibitory activity on mice Lewis lung cancer
[6] = test system: human lung adenocarcinoma A549-nude mice-xenograft tumor; assay: Growth inhibition on A549-nude mice-xenograft tumor
Source text: (§3) Genera: BALB/c (nu-nu) nude mice
(§4) After one-week accommodation, animals were given subcutaneous implantation of the human lung adenocarcinoma A549 or the human ovarian cancer A2780 or the human gastric carcinoma BGC-823 cells. Animals were grouped randomly (d0) when the tumors reached 100-300 mm^3. […] Animal weights and tumor measurements were taken every […] and recorded. At the end of the study (d30 or d35), nude mice were euthanized and weighed. After the animals were sacrificed, tumor tissue was cut and weighed. Tumor volume was determined using the following equation: […]

HCT-8 = assay: MTT cytotoxicity assay, HCT-8 cells; format: cell-based; conditions: Homo sapiens, HCT-8, Table 2, read-out: IC50 (mol/L) HCT-8
Procedure: as §1, §2

[7] = test system: human gastric carcinoma BGC-823 nude mice-xenograft tumor; assay: Growth inhibition on BGC-823-nude mice-xenograft tumor
Source text: as §3, §4

BGC-823 = assay: MTT cytotoxicity assay, BGC-823 cells; format: cell-based, human; conditions: Homo sapiens, BGC-823, Table 2, read-out: IC50 (mol/L) BGC-823
Procedure: as §1, §2

[8] = test system: MCF-7/D: adriamycin-resistant subline of the human mammary adenocarcinoma cell strain MCF-7; assay: MTT cytotoxicity assay, MCF-7/D cells; format: cell-based; conditions: Homo sapiens, MCF7, Table 2, read-out: IC50 (mol/L) MCF-7/D
Procedure: as §1, §2

[9] = test system: human ovarian cancer A2780-nude mice-xenograft tumor; assay: Growth inhibition on A2780-nude mice-xenograft tumor
Source text: as §3, §4

[10] = Table 1, MTT, 4 days of culture
[11] = read-out: IC50(M) A549/Taxol, Table 1, MTT, 4 days of culture
[12] = Table 1, MTT, 4 days of culture, read-out: IC50(M) A549
[13] = Table 1, MTT, 4 days of culture, read-out: IC50(M) KB

Compound: CC=C(C)C(=O)NC(c1ccccc1)C(O)C(=O)OC1CC2(O)C(OC(=O)c3cccc(OC)c3)C3C4(OC(C)=O)COC4CC(O)C3(C)C(=O)C(OC(=O)CC)C(=C1C)C2(C)C (stereo not drawn) [Example 3, 2-(3-methoxybenzoyl)-10-propionyl-cephalomannine]
- IC50 [1, 10]: 8.02e-07 M
- IC50 [2, 11]: > 1e-06 M
- IC50 [3, 12]: 7.04e-08 M

Compound: C/C=C(\C)C(=O)N[C@@H](c1ccccc1)[C@@H](O)C(=O)O[C@H]1C[C@@]2(O)[C@@H](OC(=O)c3cccc(OC)c3)[C@@H]3[C@]4(OC(C)=O)CO[C@@H]4C[C@H](O)[C@@]3(C)C(=O)[C@H](OC(C)=O)C(=C1C)C2(C)C [Example 6, 2-(3-methoxybenzoyl)-cephalomannine]
- IC50 [1, 10]: 8.94e-07 M
- IC50 [2, 11]: > 1e-06 M
- IC50 [3, 12]: 2.1e-07 M
- IC50 [4, 13]: 1.44e-07 M

Compound: C/C=C(\C)C(=O)N[C@@H](c1ccccc1)[C@@H](O)C(=O)O[C@H]1C[C@@]2(O)[C@@H](OC(=O)c3ccccc3)[C@@H]3[C@]4(OC(C)=O)CO[C@@H]4C[C@H](O)[C@@]3(C)C(=O)[C@H](O)C(=C1C)C2(C)C [Example 1, 10-deacetyl-cephalomannine]
- IC50 [1, 10]: > 1e-06 M
- IC50 [2, 11]: > 1e-06 M
- IC50 [3, 12]: > 1e-06 M

Compound: C/C=C(\C)C(=O)N[C@@H](c1ccccc1)[C@@H](O)C(=O)O[C@H]1C[C@@]2(O)[C@@H](OC(=O)c3ccccc3)[C@@H]3[C@]4(OC(C)=O)CO[C@@H]4C[C@H](O)[C@@]3(C)C(=O)[C@H](OC(=O)CC)C(=C1C)C2(C)C [Example 4, 10-propionyl-cephalomannine]
- IC50 [1, 10]: 4.85e-07 M
- IC50 [2, 11]: 4.21e-07 M
- IC50 [3, 12]: 2.01e-07 M
- IC50 [4, 13]: 9.74e-09 M

- IC50 ([1]; Homo sapiens, KBV, 96 h, Table 1, MTT, 4 days of culture): 9.59e-07 M
- IC50 ([2]; Homo sapiens, A549/Taxol, 96 h, read-out: IC50(M) A549/Taxol, Table 1, MTT, 4 days of culture): > 1e-06 M
- IC50 ([2]; Homo sapiens, A549, Table 2, MTT assay, read-out: IC50 (mol/L) A549/T): 2.6e-08 M
- IC50 ([3]; Homo sapiens, A549, 96 h, Table 1, MTT, 4 days of culture, read-out: IC50(M) A549): 2.32e-07 M
- IC50 ([3]; Homo sapiens, A549, Table 2, MTT assay, read-out: IC50 (mol/L) A549): 5.2e-09 M
- IC50 ([4]; Homo sapiens, KB, 96 h, Table 1, MTT, 4 days of culture, read-out: IC50(M) KB): 8.66e-09 M
- IC50 ([4]; Homo sapiens, KB, Table 2, MTT assay, read-out: IC50 (mol/L) KB): 1.8e-09 M
Compound: CC(=O)O[C@H]1C(=O)[C@@]2(C)[C@H]([C@H](OC(=O)c3ccccc3)[C@]3(O)C[C@H](OC(=O)[C@H](O)[C@@H](NC(=O)c4ccccc4)c4ccccc4)C(C)=C1C3(C)C)[C@]1(OC(C)=O)CO[C@@H]1C[C@@H]2O [taxol, paclitaxel, reference compound]
- IC50 [5]: 0.41 nM
- IC50 (BGC-803): 2.5 nM
- Inhibition (%) (Lewis lung cancer; 10 × 6 mg/kg): 31.64%
- Tumor weight (g) Average (Lewis lung cancer; 10 × 6 mg/kg): 1.96 g
- Body weight (g) end (Lewis lung cancer; 10 × 6 mg/kg, end): 19.4 g
- Body weight (g) initial (Lewis lung cancer; 10 × 6 mg/kg, initial): 19.7 g
- inhibition of tumor growth, conclusion in words (Lewis lung cancer; Lewis lung cancer, comparison with taxol): can inhibit the growth
- RTV ([6]; 30 × 3 mg/kg): 4.6
- T/C (%) ([6]; 30 × 3 mg/kg): 38.9%
- Body weight (g) end ([6]; 30 × 3 mg/kg, end): 24.3 g
- Tv x ± SD end ([6]; 30 × 3 mg/kg, end): 2152 ± 474
- Body weight (g) initial ([6]; 30 × 3 mg/kg, initial): 22.0 g
- inhibition of tumor growth, conclusion in words ([6]; A549 nude mice-xenograft tumor, comparison with taxol): can inhibit the growth
- IC50 (HCT-8): 0.73 nM
- RTV ([7]; 30 × 3 mg/kg i.p.): 0.66
- T/C (%) ([7]; 30 × 3 mg/kg i.p.): 2.41%
- Tv x ± SD d0 ([7]; 30 × 3 mg/kg i.p., d0): 98.8 ± 47.35
- Tv x ± SD dn ([7]; 30 × 3 mg/kg i.p., dn 30 days after the first administration): 104.9 ± 144.9
- Body weight (g) end ([7]; 30 × 3 mg/kg i.p., end): 23.9 g
- Body weight (g) initial ([7]; 30 × 3 mg/kg i.p., initial): 25.2 g
- inhibition of tumor growth, conclusion in words ([7]; BGC-823 nude mice-xenograft tumor, comparison with taxol): can inhibit the growth
- IC50 (BGC-823): 6.3 nM
- IC50 [8]: 330 nM
- RTV ([9]; 30 × 4 mg/kg i.p.): 4.4
- T/C (%) ([9]; 30 × 4 mg/kg i.p.): 45.4%
- Tv x ± SD d0 ([9]; 30 × 4 mg/kg i.p., d0 (first administration)): 137.9 ± 21.0
- Tv x ± SD dn ([9]; 30 × 4 mg/kg i.p., dn: 30 days after the first administration): 604.8 ± 525.0
- Body weight (g) end ([9]; 30 × 4 mg/kg i.p., end): 23.3 g
- Body weight (g) initial ([9]; 30 × 4 mg/kg i.p., initial): 22.7 g
- inhibition of tumor growth, conclusion in words ([9]; A2780 nude mice-xenograft tumor, comparison with taxol): can inhibit the growth

Compound: C/C=C(\C)C(=O)N[C@@H](c1ccccc1)[C@@H](O)C(=O)O[C@H]1C[C@@]2(O)[C@@H](OC(=O)c3cccc(N=[N+]=[N-])c3)[C@@H]3[C@]4(OC(C)=O)CO[C@@H]4C[C@H](O)[C@@]3(C)C(=O)[C@H](OC(C)=O)C(=C1C)C2(C)C [Example 5, 2-(3-azidobenzoyl)-cephalomannine]
- IC50 [1, 10]: 2.23e-07 M
- IC50 [2, 11]: > 1e-06 M
- IC50 [3, 12]: > 1e-06 M
- IC50 [4, 13]: 5.9e-10 M

Compound: C/C=C(\C)C(=O)N[C@@H](c1ccccc1)[C@@H](O)C(=O)O[C@H]1C[C@@]2(O)[C@@H](OC(=O)c3ccccc3)[C@@H]3[C@]4(OC(C)=O)CO[C@@H]4C[C@H](O)[C@@]3(C)C(=O)[C@H](OC(C)=O)C(=C1C)C2(C)C [cephalomannine, reference compound]
- IC50 ([1]; Homo sapiens, KBV, 96 h): 1e-06 M
- IC50 ([2]; Homo sapiens, A549/Taxol, 96 h, read-out: IC50(M) A549/Taxol): > 1e-06 M
- IC50 ([3]; Homo sapiens, A549, 96 h, read-out: IC50(M) A549): 1.33e-07 M
- IC50 ([4]; Homo sapiens, KB, 96 h, read-out: IC50(M) KB): 5.18e-09 M

Compound: C/C=C(\C)C(=O)N[C@@H](c1ccccc1)[C@@H](O)C(=O)O[C@H]1C[C@@]2(O)[C@@H](OC(=O)c3cccc(N=[N+]=[N-])c3)[C@@H]3[C@]4(OC(C)=O)CO[C@@H]4C[C@H](O)[C@@]3(C)C(=O)[C@H](OC(=O)CC)C(=C1C)C2(C)C [Example 2, 2-(3-azidobenzoyl)-10-propionyl-cephalomannine]
- IC50 [1, 10]: 1.53e-07 M
- IC50 [2, 11]: > 1e-06 M
- IC50 [3, 12]: 8.79e-08 M

Compound: CC=C(C)C(=O)NC(c1ccccc1)C(O)C(=O)OC1CC2(O)C(OC(=O)c3cccc(OC)c3)C3C4(OC(C)=O)COC4CC(OC(=O)CC)C3(C)C(=O)C(O)C(=C1C)C2(C)C (stereo not drawn) [Example 7, 2-(3-methoxybenzoyl)-7-propionyl-10-deacetyl-cephalomannine]
- IC50 [1, 10]: 2.79e-07 M
- IC50 [2, 11]: > 1e-06 M
- IC50 [3, 12]: 2.51e-07 M
- IC50 [4, 13]: 8.78e-09 M

— patent US20110039921A1 (priority 2007, published 2011)
